Laboratory results published in PubChem BioAssay AID1845207 (Molecular Pharmacology Branch, DTP, NCI, 2023).

System: NCI-H1876 tumor spheroid viability
Assay: Anticancer human tumor NCI-H1876 cell line growth inhibition;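 also: spheroids exposed to compounds for seven days before the viability read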;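 as to viability, T/C: percent of DMSO vehicle control viability so 100% = vehicle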
Settings: spheroids with HUVEC and MSC; for IC50: curve of first compound; for viability, T/C: stronger effect = lower value
From the text: Multicellular complex tumor spheroid response to DNA repair inhibitors in combination with DNA-damaging drugs
This study explores the anticancer activities of DNA-damaging drugs and inhibitors of DNA damage repair, both as single agents and in combinations. Complex tumor spheroids comprised of malignant cells, endothelial cells and mesenchymal stem cells served as an in vitro model for human solid tumors. This model system incorporates physiologically relevant features and patient-derived or established malignant cell lines with clinically relevant genetic alterations from many tumor types. Twenty-six patient-derived or established malignant cell lines were evaluated representing sarcoma, melanoma, small cell lung cancer (SCLC), non-small cell lung cancer (NSCLC), as well as bladder, ovarian and pancreatic cancers. The concentration ranges selected for each drug and investigational agent were based upon clinically achievable concentrations if the clinical Cmax of the agent was known.
Compounds. The drugs and compounds olaparib (NSC753686), talazoparib (NSC767125), berzosertib (NSC777718), elimusertib (NSC800525), nedisertib (NSC802822), VX-984 (NSC792969), AZD-1390 (NSC803789), temozolomide (NSC362856), topotecan (NSC609699), trabectedin (NSC813783), staurosporine (NSC755774), and gemcitabine (NSC613327) were obtained from the National Cancer Institute (NCI) Developmental Therapeutics Program Chemical Repository. The FDA-approved anticancer drug set is available from the Developmental Therapeutics Program at https://dtp.cancer.gov/organization/dscb/obtaining/available_plates.htm. […] The stock solutions were prepared in dimethyl sulfoxide (DMSO, Sigma-Aldrich, St. Louis, MO, cat. D2650) at 400-fold the tested concentration and stored at -70 degrees C. Prior to their use, the stock solutions were diluted in fresh medium and the final DMSO concentration in the assay was 0.25% (v/v). All drugs and investigational agents were tested over a range starting from a high concentration at or near the clinical Cmax and decreasing in half-log increments. If the clinical Cmax for an agent had not been determined, the highest concentration tested was 10 microM.
Cell Lines. The patient-derived cancer cell (PDC) lines: 156681-154-R-J1-PDC, 283228-195-R-J1-PDC, 287954-098-R-J1-PDC, 292921-168-R-J2-PDC, 349418-098-R-PDC, 425362-245-T-J1-PDC, 556581-035-R-J1-PDC, and BL0293-F563-PDC were received from the NCI Patient-Derived Models Repository (PDMR, https://pdmr.cancer.gov). The established cell lines HS-SY-2 (RRID:CVCL_8719), MPNST, and SYO-1 (RRID:CVCL_7146) were obtained from the Sloan Kettering Institute. The alveolar soft parts sarcoma cell line ASPS-1 (RRID:CVCL_S738) was established at the NCI and grown from internal seed stocks. The following established cell lines were purchased from the American Type Culture Collection (ATCC, Manassas, VA): G-401 (ATCC, cat. CRL-1441, RRID:CVCL_0270), SW982 (ATCC, cat. HTB-93, RRID:CVCL_1734), VA-ES-BJ (ATCC, cat. CRL-2138, RRID:CVCL_1785), NCI-H719 (ATCC, cat. CRL-5837, RRID:CVCL_1582), NCI-H196 (ATCC, cat. CRL-5823, RRID:CVCL_1509), NCI-H841 (ATCC, cat. CRL-5845, RRID:CVCL_1595), NCI-H1618 (ATCC, cat. CRL-5879, RRID:CVCL_1480), NCI-H1876 (ATCC, cat. CRL-5902, RRID:CVCL_1503), DMS 114 (ATCC, cat. CRL-2066; RRID:CVCL_1174), NCI-H211 (ATCC, cat. CRL-5824; RRID:CVCL_1529), and SW 1271 (ATCC, cat. CRL-2177, RRID:CVCL_1716). The small cell lung cancer cell line COR-L88 was purchased from Sigma-Aldrich (cat. 92031917-1VL, RRID:CVCL_1141). The non-small cell lung cancer cell lines NCI-H226 (RRID:CVCL_1544) and NCI-H322M (RRID:CVCL_1557) were established at the NCI and grown from internal seed stocks. Pooled donor human umbilical vein endothelial cells (HUVEC, Lonza, cat. CC-2519) and human mesenchymal stem cells (hMSC, Lonza, cat. PT-2501) were purchased from Lonza (Walkersville, MD).
Cell Culture. All cells were maintained in an incubator at 37 degrees C and 5% CO2 with 95% humidity. […]

[1] = second compound 0.003 µM, first compound 0.00949 µM
[2] = second compound 0.003 µM, first compound 0.03 µM
[3] = second compound 0.003 µM, first compound 0.0949 µM
[4] = second compound 0.003 µM, first compound 0.3 µM
[5] = second compound 0.003 µM, first compound 0.949 µM
[6] = second compound 0.003 µM, first compound 3 µM
[7] = second compound 0.00949 µM, first compound 0.00949 µM
[8] = second compound 0.00949 µM, first compound 0.03 µM
[9] = second compound 0.00949 µM, first compound 0.0949 µM
[10] = second compound 0.00949 µM, first compound 0.3 µM
[11] = second compound 0.00949 µM, first compound 0.949 µM
[12] = second compound 0.00949 µM, first compound 3 µM
[13] = second compound 0.03 µM, first compound 0.00949 µM
[14] = second compound 0.03 µM, first compound 0.03 µM
[15] = second compound 0.03 µM, first compound 0.0949 µM
[16] = second compound 0.03 µM, first compound 0.3 µM
[17] = second compound 0.03 µM, first compound 0.949 µM
[18] = second compound 0.03 µM, first compound 3 µM
[19] = second compound 0.0949 µM, first compound 0.00949 µM
[20] = second compound 0.0949 µM, first compound 0.03 µM
[21] = second compound 0.0949 µM, first compound 0.0949 µM
[22] = second compound 0.0949 µM, first compound 0.3 µM
[23] = second compound 0.0949 µM, first compound 0.949 µM
[24] = second compound 0.0949 µM, first compound 3 µM
[25] = second compound 0.3 µM, first compound 0.00949 µM
[26] = second compound 0.3 µM, first compound 0.03 µM
[27] = second compound 0.3 µM, first compound 0.0949 µM
[28] = second compound 0.3 µM, first compound 0.3 µM
[29] = second compound 0.3 µM, first compound 0.949 µM
[30] = second compound 0.3 µM, first compound 3 µM

Row | SMILES | IC50 (second compound 0.003 µM) | IC50 (second compound 0.00949 µM) | IC50 (second compound 0.03 µM) | IC50 (second compound 0.0949 µM) | IC50 (second compound 0.3 µM) | viability, T/C [1] | viability, T/C [2] | viability, T/C [3] | viability, T/C [4] | viability, T/C [5] | viability, T/C [6] | viability, T/C [7] | viability, T/C [8] | viability, T/C [9] | viability, T/C [10] | viability, T/C [11] | viability, T/C [12] | viability, T/C [13] | viability, T/C [14] | viability, T/C [15] | also measured
1 | CNCc1ccc(-c2cc(-c3nc(-c4ccc(S(=O)(=O)C(C)C)cc4)cnc3N)on2)cc1 + CC[C@@]1(O)C(=O)OCc2c1cc1n(c2=O)Cc2cc3c(CN(C)C)c(O)ccc3nc2-1 | 56.8 nM | < 9.49 nM | < 9.49 nM | < 9.49 nM | < 9.49 nM | 68% | 57.6% | 34% | 46.9% | 5.62% | 0.13% | 46.3% | 34.2% | 26.3% | 18% | 5.92% | 0.13% | 13.6% | 14.5% | 16.9% | viability, T/C [16]: 19%; viability, T/C [17]: 5.1%; viability, T/C [18]: 0.13%; viability, T/C [19]: 8.73%; viability, T/C [20]: 8.03%; viability, T/C [21]: 10.2%; viability, T/C [22]: 8.96%; viability, T/C [23]: 3.31%; viability, T/C [24]: 0.13%; viability, T/C [25]: 3.51%; viability, T/C [26]: 3.44%; viability, T/C [27]: 3.53%; viability, T/C [28]: 3.41%; viability, T/C [29]: 1.38%; viability, T/C [30]: 0.19%
2 | Cc1sc2c(c1C)C(c1ccc(Cl)cc1)=NC(CC(=O)Nc1ccc(O)cc1)c1nnc(C)n1-2 (stereo not given) + CC[C@@]1(O)C(=O)OCc2c1cc1n(c2=O)Cc2cc3c(CN(C)C)c(O)ccc3nc2-1 | 31.8 nM | < 9.49 nM | < 9.49 nM | < 9.49 nM | < 9.49 nM | 70.7% | 52.3% | 25.6% | 15.8% | 8.93% | 5.64% | 30.6% | 46.8% | 16.6% | 12.2% | 7.36% | 5.57% | 12.2% | 30% | 12.2% | viability, T/C [16]: 10.8%; viability, T/C [17]: 5.27%; viability, T/C [18]: 4.32%; viability, T/C [19]: 7.77%; viability, T/C [20]: 8.11%; viability, T/C [21]: 8.71%; viability, T/C [22]: 7.87%; viability, T/C [23]: 5.5%; viability, T/C [24]: 4%; viability, T/C [25]: 3.46%; viability, T/C [26]: 3.69%; viability, T/C [27]: 3.67%; viability, T/C [28]: 3.02%; viability, T/C [29]: 2.65%; viability, T/C [30]: 1.56%
